From patent publication US20120245137A1 (Zalicus Pharmaceuticals Ltd., priority 2009, published 2012) come the findings set out here.

Assay type in all cases: cell-based
Assay [1] addresses human α1G T-type channels (Homo sapiens, UniProt O43497). The experiment in a line: T-type calcium channel block, whole cell patch clamp, α1G. To be noted: HEK cells stably expressing human α1G; mainly non-inactivated protocol; values above 10,000 nM represented as 10000. A digest of the protocol: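 Blockade of T-type current was measured in human α1G- or α1H-expressing HEK 293 cells using whole-cell recording with ~5 MΩ pipettes. Test compounds, dissolved in external solution containing 0.1-0.01% DMSO, were applied close to the cell, and block was examined under both non-inactivating and inactivating voltage protocols.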
In general terms: In patch-clamp work, channel activity is measured electrically.

Assay [2] addresses human α1H T-type channels (Homo sapiens, UniProt O95180). The experiment in a line: T-type calcium channel block, whole cell patch clamp, α1H. To be noted: HEK cells stably expressing human α1H; mainly non-inactivated protocol; values above 10,000 nM represented as 10000. As to the method:
T-type calcium channel blocking activity was assayed in human embryonic kidneycells, HEK 293 (Invitrogen), stably transfected with the T-type calcium channel subunits. Briefly, cells were cultured in Dulbecco's modified eagle medium (DMEM) supplemented with 10% fetal bovine serum, 200 U/ml penicillin, and 0.2 mg/mL streptomycin at 37° C. with 5% CO2. At 85% confluency, cells were split with 0.25% trypsin/1 mM EDTA and plated at 10% confluency on glass coverslips. At 12 hours, the medium was replaced, and the cells stably transfected using a standard calcium phosphate protocol and the appropriate calcium channel cDNA's. Fresh DMEM was supplied, and the cells transferred to 28° C./5% CO2.
Standard patch-clamp techniques were employed to identify blockers of T-type currents. Briefly, previously described HEK cell lines stably expressing human α1G, α1H, and α1I T-type channels were used for all the recordings (passage #: 4-20, 37° C., 5% CO2). Whole cell patch clamp experiments were performed using an Axopatch 200B amplifier (Axon Instruments, Burlingame, Calif.) linked to a personal computer equipped with pCLAMP software. Data were analyzed using Clampfit (Axon Instruments) and SigmaPlot 4.0 (Jandel Scientific). To obtain T-type currents, plastic dishes containing semi-confluent cells were positioned on the stage of a ZEISS AXIOVERT S100 microscope after replacing the culture medium with external solution (Table 2). Whole-cell patches were obtained using pipettes (borosilicate glass with filament, O.D.: 1.5 mm, I.D.: 0.86 mm, 10 cm length), fabricated on a SUTTER P-97 puller with resistance values of ˜5 MΩ (Table 3).
T-type currents were reliably obtained by using two voltage protocols: • “non-inactivating,” and • “inactivation.”
Test compounds were dissolved in external solution, 0.1-0.01% DMSO. After ˜10 minutes rest, they were applied by gravity close to the cell using a WPI microfil tubing. The “non-inactivated” pre-pulse was used to examine the resting block of a compound. The “inactivated” protocol was employed to study voltage-dependent block.

In assay [3] the target is N-type calcium channel subunits (α1B, α2δ, and β3a) (Homo sapiens, UniProt Q00975). The experiment in a line: Block of Cav2.2 channel, whole cell voltage clamp, manual and PatchXpress. To be noted: Table 5; table follows Assay Example 3 (whole cell voltage clamp / PatchXpress); assay not given. The gist of the method:
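Percent block taken as current amplitude ratio with versus without compound, applied in rising doses; IC50 fitted where one cell received multiple doses. Protocol: 50 ms pulses to +20 mV at 0.067 Hz from […] or −90 mV holding; P/n leak subtraction, no junction-potential correction; manual and PatchXpress recordings.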

Sequence of human α1H T-type channels (O95180 whole entry): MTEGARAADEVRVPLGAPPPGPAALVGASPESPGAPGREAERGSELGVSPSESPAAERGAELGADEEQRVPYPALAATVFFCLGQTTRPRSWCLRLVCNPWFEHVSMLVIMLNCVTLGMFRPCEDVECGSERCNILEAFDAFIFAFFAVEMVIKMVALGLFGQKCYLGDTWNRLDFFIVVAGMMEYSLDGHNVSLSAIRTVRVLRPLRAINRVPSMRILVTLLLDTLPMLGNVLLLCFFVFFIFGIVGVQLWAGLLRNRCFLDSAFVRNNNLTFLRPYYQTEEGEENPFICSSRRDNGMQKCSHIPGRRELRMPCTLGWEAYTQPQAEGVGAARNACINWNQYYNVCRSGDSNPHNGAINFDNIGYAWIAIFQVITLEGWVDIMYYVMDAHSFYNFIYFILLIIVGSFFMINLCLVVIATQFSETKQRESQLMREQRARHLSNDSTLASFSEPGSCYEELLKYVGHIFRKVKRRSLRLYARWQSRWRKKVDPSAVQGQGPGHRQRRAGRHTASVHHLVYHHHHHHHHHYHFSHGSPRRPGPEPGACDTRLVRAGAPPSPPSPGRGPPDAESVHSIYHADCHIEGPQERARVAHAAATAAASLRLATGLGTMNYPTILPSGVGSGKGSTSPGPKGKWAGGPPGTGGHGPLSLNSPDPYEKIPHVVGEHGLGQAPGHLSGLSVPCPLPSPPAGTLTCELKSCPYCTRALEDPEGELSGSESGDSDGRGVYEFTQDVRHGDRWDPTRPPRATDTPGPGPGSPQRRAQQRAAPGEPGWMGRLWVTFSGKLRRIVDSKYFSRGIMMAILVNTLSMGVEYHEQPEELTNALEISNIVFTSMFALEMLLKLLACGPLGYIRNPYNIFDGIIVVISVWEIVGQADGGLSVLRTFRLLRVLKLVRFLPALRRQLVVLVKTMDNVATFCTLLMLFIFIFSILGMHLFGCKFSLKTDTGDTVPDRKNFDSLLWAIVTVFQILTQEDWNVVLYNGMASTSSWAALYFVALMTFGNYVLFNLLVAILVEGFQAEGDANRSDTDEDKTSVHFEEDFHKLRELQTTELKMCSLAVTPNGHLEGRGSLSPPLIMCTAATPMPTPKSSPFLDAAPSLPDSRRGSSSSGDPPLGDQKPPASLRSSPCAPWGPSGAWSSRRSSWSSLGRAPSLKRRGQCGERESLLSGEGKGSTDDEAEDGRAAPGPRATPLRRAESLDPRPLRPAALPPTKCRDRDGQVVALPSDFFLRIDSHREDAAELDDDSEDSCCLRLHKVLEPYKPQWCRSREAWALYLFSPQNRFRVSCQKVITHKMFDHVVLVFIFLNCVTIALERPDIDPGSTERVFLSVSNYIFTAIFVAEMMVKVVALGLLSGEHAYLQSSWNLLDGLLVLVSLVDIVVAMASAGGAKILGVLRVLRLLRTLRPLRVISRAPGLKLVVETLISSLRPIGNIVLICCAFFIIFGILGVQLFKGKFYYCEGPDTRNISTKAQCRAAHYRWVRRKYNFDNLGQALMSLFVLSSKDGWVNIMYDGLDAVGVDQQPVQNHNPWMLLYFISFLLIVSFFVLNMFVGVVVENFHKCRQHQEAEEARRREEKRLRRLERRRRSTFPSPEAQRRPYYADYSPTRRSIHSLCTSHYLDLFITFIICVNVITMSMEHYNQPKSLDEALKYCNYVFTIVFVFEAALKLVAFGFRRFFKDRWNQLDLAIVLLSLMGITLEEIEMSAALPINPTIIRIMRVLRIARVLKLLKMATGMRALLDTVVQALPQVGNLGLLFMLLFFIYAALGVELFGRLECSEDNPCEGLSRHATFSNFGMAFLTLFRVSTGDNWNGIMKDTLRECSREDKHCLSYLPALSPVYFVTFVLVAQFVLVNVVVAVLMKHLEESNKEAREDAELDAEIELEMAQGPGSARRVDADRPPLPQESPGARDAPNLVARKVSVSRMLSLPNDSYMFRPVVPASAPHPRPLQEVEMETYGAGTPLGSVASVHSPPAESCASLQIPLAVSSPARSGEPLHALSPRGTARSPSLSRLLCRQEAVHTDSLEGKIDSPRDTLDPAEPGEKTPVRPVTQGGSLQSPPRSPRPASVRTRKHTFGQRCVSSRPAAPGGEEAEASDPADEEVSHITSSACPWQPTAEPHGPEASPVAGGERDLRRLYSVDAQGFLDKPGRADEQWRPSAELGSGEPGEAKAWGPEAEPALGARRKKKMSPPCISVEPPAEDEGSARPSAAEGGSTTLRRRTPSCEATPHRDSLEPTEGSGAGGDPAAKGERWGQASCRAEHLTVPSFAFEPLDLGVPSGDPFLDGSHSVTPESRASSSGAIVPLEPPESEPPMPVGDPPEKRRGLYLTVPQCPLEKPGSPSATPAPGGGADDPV
Sequence of human α1G T-type channels (O43497 whole entry): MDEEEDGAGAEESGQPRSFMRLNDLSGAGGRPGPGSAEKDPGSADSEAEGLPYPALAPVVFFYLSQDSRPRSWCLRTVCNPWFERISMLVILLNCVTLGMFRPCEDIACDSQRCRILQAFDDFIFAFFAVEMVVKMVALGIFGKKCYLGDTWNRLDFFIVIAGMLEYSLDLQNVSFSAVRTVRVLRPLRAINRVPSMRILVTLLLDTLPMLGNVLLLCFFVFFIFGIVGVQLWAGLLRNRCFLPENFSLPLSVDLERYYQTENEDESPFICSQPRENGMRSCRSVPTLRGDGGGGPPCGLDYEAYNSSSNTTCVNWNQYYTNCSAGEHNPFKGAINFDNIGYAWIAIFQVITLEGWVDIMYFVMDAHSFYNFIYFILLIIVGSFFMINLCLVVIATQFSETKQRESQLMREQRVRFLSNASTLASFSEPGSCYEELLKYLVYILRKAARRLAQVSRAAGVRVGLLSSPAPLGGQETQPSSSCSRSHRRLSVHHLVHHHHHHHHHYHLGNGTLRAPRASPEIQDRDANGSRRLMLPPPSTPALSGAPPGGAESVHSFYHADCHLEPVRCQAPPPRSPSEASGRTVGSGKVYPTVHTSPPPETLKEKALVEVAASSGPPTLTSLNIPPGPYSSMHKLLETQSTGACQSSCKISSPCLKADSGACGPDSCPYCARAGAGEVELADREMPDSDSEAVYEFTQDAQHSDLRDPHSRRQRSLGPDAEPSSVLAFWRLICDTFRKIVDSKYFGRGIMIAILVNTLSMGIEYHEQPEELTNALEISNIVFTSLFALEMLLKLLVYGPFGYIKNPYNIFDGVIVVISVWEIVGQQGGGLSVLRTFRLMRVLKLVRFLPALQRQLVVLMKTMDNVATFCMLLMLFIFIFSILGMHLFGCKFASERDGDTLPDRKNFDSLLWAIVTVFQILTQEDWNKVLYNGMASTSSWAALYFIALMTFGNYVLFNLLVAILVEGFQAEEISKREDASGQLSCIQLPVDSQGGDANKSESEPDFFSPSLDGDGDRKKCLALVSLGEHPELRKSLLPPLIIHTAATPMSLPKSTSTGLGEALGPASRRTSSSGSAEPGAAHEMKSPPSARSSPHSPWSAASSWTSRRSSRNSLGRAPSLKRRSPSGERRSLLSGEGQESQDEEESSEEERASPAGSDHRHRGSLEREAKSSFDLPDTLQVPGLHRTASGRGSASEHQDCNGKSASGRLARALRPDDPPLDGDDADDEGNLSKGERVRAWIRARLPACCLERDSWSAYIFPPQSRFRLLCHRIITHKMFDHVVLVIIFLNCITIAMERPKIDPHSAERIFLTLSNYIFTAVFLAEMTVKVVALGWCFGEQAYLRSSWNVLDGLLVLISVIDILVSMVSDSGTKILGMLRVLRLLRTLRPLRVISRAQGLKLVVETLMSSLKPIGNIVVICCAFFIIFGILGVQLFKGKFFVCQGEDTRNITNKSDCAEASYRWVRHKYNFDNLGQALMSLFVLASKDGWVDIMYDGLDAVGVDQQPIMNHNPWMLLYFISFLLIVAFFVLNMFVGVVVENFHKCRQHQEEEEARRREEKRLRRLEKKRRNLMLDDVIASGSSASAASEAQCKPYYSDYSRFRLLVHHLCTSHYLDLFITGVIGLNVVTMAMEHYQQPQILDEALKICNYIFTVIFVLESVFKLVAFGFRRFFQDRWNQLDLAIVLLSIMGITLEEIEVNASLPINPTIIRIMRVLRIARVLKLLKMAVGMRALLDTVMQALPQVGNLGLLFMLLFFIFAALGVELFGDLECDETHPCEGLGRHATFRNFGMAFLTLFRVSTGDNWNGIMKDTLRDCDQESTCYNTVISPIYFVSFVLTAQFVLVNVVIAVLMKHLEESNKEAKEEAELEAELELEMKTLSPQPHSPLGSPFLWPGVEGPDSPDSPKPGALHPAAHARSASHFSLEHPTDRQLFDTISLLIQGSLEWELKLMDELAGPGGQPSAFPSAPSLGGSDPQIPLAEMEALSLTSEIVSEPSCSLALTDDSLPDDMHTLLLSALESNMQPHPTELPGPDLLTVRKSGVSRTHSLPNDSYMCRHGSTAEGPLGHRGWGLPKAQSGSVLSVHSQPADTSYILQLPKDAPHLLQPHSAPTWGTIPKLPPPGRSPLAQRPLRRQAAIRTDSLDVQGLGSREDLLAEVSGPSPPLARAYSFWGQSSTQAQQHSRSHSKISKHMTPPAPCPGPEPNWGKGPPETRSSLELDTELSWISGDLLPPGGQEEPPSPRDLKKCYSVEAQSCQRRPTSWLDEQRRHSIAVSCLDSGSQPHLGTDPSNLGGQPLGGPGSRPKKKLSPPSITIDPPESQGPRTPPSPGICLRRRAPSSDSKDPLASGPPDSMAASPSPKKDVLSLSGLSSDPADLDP

For orientation: IC50 means the midpoint of a concentration-inhibition curve. Take `CN(CCC(C)(C)S(=O)(=O)c1cccc(C(F)(F)F)c1)C(=O)c1cn2ccc(C(F)(F)F)cc2n1` [Compound 514, N-methyl-N-(3-methyl-3-(3-(trifluoromethyl)phenylsulfonyl)butyl)-7-(trifluoromethyl)imidazo[1,2-a]pyridine-2-carboxamide]: the values for the IC50 in assay [1] and in assay [2] were 840 nM and over 10000 nM, respectively.

As to `CC1(C)CCC(NCC(C)(C)S(=O)(=O)c2cccc(C(F)(F)F)c2)CC1` [Compound 518, 4,4-dimethyl-N-(2-methyl-2-(3-(trifluoromethyl)phenylsulfonyl)propyl) cyclohexanamine], the IC50 came out at 600 nM in assay [1] and 4120 nM in assay [2].

With `CC(C)(C(=O)Nc1ccc(Oc2ccccc2)cc1)S(=O)(=O)c1cccc(C(F)(F)F)c1` [Compound 487, 2-methyl-N-(4-phenoxyphenyl)-2-(3-(trifluoromethyl)phenylsulfonyl)propanamide], the results for the 50% inhibitory concentration (IC50) in assay [1] and in assay [2] were 210 nM and 3310 nM, respectively.

In the case of `CC(C)(CNS(=O)(=O)c1ccc2ncsc2c1)S(=O)(=O)c1cccc(C(F)(F)F)c1` [Compound 501, N-(2-methyl-2-(3-(trifluoromethyl)phenylsulfonyl)propyl)benzo [d]thiazole-6-sulfonamide], the IC50 in assay [1] is 420 nM; in assay [2], over 10000 nM.

Consider `O=C(N[C@H]1CC[C@H](S(=O)(=O)c2cccc(C(F)(F)F)c2)CC1)c1cc(C(F)(F)F)ccn1` [Compound 61, 4-(trifluoromethyl)-N-((1R,4R)-4-(3-(trifluoromethyl)phenylsulfonyl)cyclohexyl)picolinamide], for which the IC50 in assay [2] is over 10000 nM; in assay [3], 1650 nM.

With `COc1cc(C(=O)NC[C@H]2C[C@H](S(=O)(=O)c3cccc(C(F)(F)F)c3)C2)cc(Cl)n1` [Compound 363, 2-chloro-6-methoxy-N-(((1R,3R)-3-(3-(trifluoromethyl)phenylsulfonyl)cyclobutyl)methyl)isonicotinamide], the IC50 in assay [2] is over 10000 nM; in assay [3], 310 nM.

With `Cn1cc(C(=O)N[C@H]2CC[C@@H](S(=O)(=O)c3cccc(C(F)(F)F)c3)CC2)c(C(F)(F)F)n1` [Compound 45, 1-methyl-3-(trifluoromethyl)-N-((1S,4S)-4-(3-(trifluoromethyl)phenylsulfonyl)cyclohexyl)-1H-pyrazole-4-carboxamide], the IC50 in assay [2] is over 10000 nM; in assay [3], 1290 nM.

Turning to `O=C(CN[C@H]1C[C@H](S(=O)(=O)c2cccc(C(F)(F)F)c2)C1)NC1CCC(F)(F)CC1` [Compound 428, N-(4,4-ditluorocyclohexyl)-2-((1R,3R)-3-(3-(trifluoromethyl)phenylsulfonyl)cyclobutylamino) acetamide], the IC50 was over 10000 nM in assay [2] and 960 nM in assay [3].

For `O=C(NC[C@H]1C[C@H](S(=O)(=O)c2cccc(C(F)(F)F)c2)C1)c1ccnc(C(F)(F)F)n1` [Compound 362, 2-(trifluoromethyl)-N-(((1R,3R)-3-(3-(trifluoromethyl)phenylsulfonyl)cyclobutyl)methyl)pyrimidine-4-carboxamide], the concentration for half-maximal inhibition (IC50) was over 10000 nM in assay [2] and 370 nM in assay [3].

For the molecule `CC(C)(C(=O)N[C@H]1CC[C@@](F)(S(=O)(=O)c2cc(F)cc(C(F)(F)F)c2)CC1)S(=O)(=O)c1cccc(C(F)(F)F)c1` [Compound 292, N-((1S,4S)-4-fluoro-4-(3-fluoro-5-(trifluoromethyl)phenylsulfonyl)cyclohexyl)-2-methyl-2-(3-(trifluoromethyl)phenylsulfonyl) propanamide], the IC50 in assay [2] is over 10000 nM; in assay [3], 130 nM.

With `CC([C@H]1C[C@H](NC(=O)c2ccc(F)c(C(F)(F)F)c2)C1)S(=O)(=O)c1cccc(C(F)(F)F)c1` (stereo partly drawn) [Compound 433, 4-fluoro-3-(trifluoromethyl)-N-((1R,3R)-3-((R)-1-(3-(trifluoromethyl)phenylsulfonyl)ethyl)cyclobutyl)benzamide], the IC50 in assay [2] was over 10000 nM; in assay [3], 220 nM.

For `Cn1cc(C(=O)N[C@H]2CC[C@H](S(=O)(=O)c3cccc(C(F)(F)F)c3)CC2)c(C(F)(F)F)n1` [Compound 64, 1-methyl-3-(trifluoromethyl)-N-((1R,4R)-4-(3-(trifluoromethyl)phenylsulfonyl)cyclohexyl)-1H-pyrazole-4-carboxamide], the IC50 was over 10000 nM in assay [2] and 550 nM in assay [3].

As for `CC1(S(=O)(=O)c2cccc(C(F)(F)F)c2)CCC(NC(=O)CCC(F)(F)F)CC1` (stereo not shown) [Compound 5, 4,4,4-trifluoro-N-(4-methyl-4-(3-(trifluoromethyl)phenylsulfonyl)cyclohexyl)butanamide], the figures for the IC50 in assay [2] and in assay [3] were over 10000 nM and 380 nM, respectively.

Turning to “6-fluoro-N-((1R,4R)-4-((3- (trifluoromethyl)phenylsulfonyl) methyl)cyclohexyl)-1H- benzo[d]imidazole-2-carboxamide [Compound 110]”, the IC50 in assay [2] was over 10000 nM; in assay [3] it was 6020 nM.

As for `Cn1nc(C(F)(F)F)cc1C(=O)N[C@H]1CC[C@@H](S(=O)(=O)c2cc(F)cc(C(F)(F)F)c2)CC1` [Compound 321, N-((1S,4S)-4-(3-fluoro-5-(trifluoromethyl)phenylsulfonyl)cyclohexyl)-1-methyl-3-(trifluoromethyl)-1Hpyrazole-5-carboxamide], the IC50 is over 10000 nM in assay [2] and 1920 nM in assay [3].

Turning to `O=C(Nc1ccc(Oc2ccc(Cl)cc2)cc1)[C@H]1C[C@H](S(=O)(=O)c2cccc(C(F)(F)F)c2)C1` [Compound 404, (1R,3R)-N-(4-(4-chlorophenoxy)phenyl)-3-(3-(trifluoromethyl)phenylsulfonyl)cyclobutane carboxamide], the IC50 in assay [2] was over 10000 nM; in assay [3], 3330 nM.

For the molecule `O=C(CN[C@H]1CC[C@H](S(=O)(=O)c2cccc(C(F)(F)F)c2)CC1)NCC(F)(F)F` [Compound 68, N-(2,2,2-trifluoroethyl)-2-((1R,4R)-4-(3-(trifluoromethyl)phenylsulfonyl)cyclohexylamino)acetamide], the IC50 in assay [2] was over 10000 nM; in assay [3] it was 1720 nM.

With `COc1cc(F)cc(C(=O)N[C@H]2CC[C@@H](S(=O)(=O)c3cccc(C(F)(F)F)c3)CC2)c1` [Compound 39, 3-fluoro-5-methoxy-N-((1S,4S)-4-(3-(trifluoromethyl)phenylsulfonyl)cyclohexyl)benzamide], the IC50 in assay [2] is over 10000 nM; in assay [3], 410 nM.

Turning to `COc1cc(C(=O)NC[C@H]2C[C@@H](S(=O)(=O)c3cccc(C(F)(F)F)c3)C2)cc(Cl)n1` [Compound 380, 2-chloro-6-methoxy-N-(((1S,3S)-3-(3-(trifluoromethyl)phenylsulfonyl)cyclobutyl)methyl)isonicotinamide], the IC50 is over 10000 nM in assay [2] and 1470 nM in assay [3].

As to `CC1(S(=O)(=O)c2cccc(C(F)(F)F)c2)CCC(NC(=O)c2ccc(C(F)(F)F)cn2)CC1` (stereo not shown) [Compound 3, N-(4-methyl-4-(3-(trifluoromethyl)phenylsulfonyl)cyclohexyl)-5-(trifluoromethyl) picolinamide], the IC50 is over 10000 nM in assay [2] and 640 nM in assay [3].

As to `O=C(NC[C@H]1C[C@@H](S(=O)(=O)c2cccc(C(F)(F)F)c2)C1)c1cc(F)cc(Cl)c1` [Compound 381, 3-chloro-5-fluoro-N-(((1S,3S)-3-(3-(trifluoromethyl)phenylsulfonyl)cyclobutyl)methyl)benzamide], the IC50 in assay [2] was over 10000 nM; in assay [3] it was 590 nM.

`CC(C)(C)S(=O)(=O)c1ccsc1C(=O)N[C@H]1CC[C@H](CS(=O)(=O)c2cccc(C(F)(F)F)c2)CC1` [Compound 178, 3-(tert-butylsulfonyl)-N-((1R.4R)-4-((3-(trifluoromethyl)phenylsulfonyl)methyl)cyclohexyl)thiophene-2-carboxamide]: the IC50 was over 10000 nM in assay [2] and 250 nM in assay [3].

In the case of `O=C(CN[C@H]1CC[C@H](CS(=O)(=O)c2cccc(C(F)(F)F)c2)CC1)Nc1ccccn1` [Compound 120, N-(pyridin-2-yl)-2-((1R,4R)-4-((3-(trifluoromethyl)phenylsulfonyl)methyl)cyclohexylamino)acetamide], the IC50 in assay [2] is over 10000 nM; in assay [3] it was 580 nM.
